# Measured values: patent US20080317752A1, “Inhibition of Tumorigenesis by Inhibition of a6b4 Integrin” (Sloan-Kettering Institute for Cancer Research, priority 2005, published 2008)
# Tests used:
# [1] = test system: mammary tumors of MMTV-Neu (YD) mice; test: Treatment of tumor-bearing MMTV-Neu(YD) mice, tumor volume by caliper; format: in vivo; details: for effect on tumor volume: Iressa 100 mg/Kg/day, day 24; for treated tumors that regress: Iressa 100 mg/Kg/day gastric gavage 24 days
# [2] = test system: ERK and Akt; test: Activation of ERK and Akt in tumor lysates of treated mice; format: in vivo; details: Neu(YD)/b4-1355T versus Neu(YD)/b4-WT tumors
# [3] = test system: b4; test: Tyrosine phosphorylation of b4; format: cell-based
# Protocol: (§1) Biochemical studies were performed to study the molecular mechanism by which b4 signaling promotes mammary tumorigenesis.
# [4] = test system: activated ErbB2; test: Inhibition of activated ErbB2 (IC50); format: cell-based; details: Neu-b4-WT versus Neu-b4-1355T cells in vitro
# activated ErbB2, sequence (P04626 23-1255): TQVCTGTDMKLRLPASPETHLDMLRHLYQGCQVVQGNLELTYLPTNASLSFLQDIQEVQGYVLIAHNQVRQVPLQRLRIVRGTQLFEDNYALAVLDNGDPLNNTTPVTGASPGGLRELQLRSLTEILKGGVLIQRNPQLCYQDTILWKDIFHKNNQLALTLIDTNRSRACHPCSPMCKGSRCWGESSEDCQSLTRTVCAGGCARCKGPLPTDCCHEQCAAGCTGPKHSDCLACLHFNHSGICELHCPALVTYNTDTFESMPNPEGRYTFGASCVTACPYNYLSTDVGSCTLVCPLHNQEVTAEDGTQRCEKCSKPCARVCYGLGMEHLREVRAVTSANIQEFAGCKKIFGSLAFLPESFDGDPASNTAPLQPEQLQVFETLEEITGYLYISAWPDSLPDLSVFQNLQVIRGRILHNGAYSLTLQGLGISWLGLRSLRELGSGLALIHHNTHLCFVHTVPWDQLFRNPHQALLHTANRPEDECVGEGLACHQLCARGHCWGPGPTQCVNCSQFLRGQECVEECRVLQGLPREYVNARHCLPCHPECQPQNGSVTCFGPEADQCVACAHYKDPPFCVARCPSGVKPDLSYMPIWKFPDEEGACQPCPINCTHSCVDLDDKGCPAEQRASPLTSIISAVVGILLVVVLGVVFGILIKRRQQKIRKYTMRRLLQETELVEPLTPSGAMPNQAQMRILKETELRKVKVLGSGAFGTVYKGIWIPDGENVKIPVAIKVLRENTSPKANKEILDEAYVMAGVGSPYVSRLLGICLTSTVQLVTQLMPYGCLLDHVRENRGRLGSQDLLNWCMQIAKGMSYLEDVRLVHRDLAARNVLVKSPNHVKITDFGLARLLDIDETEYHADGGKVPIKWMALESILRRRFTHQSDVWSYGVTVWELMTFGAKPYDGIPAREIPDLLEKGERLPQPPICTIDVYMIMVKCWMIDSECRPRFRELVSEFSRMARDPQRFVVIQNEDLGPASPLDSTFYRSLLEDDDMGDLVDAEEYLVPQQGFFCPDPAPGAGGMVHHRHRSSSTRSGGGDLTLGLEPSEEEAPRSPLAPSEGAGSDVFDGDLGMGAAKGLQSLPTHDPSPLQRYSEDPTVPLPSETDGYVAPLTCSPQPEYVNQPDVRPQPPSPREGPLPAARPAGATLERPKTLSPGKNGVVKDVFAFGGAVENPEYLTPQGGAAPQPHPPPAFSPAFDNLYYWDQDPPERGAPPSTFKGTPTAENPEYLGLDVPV
# [5] = test system: SFKs; test: Activation of SFKs; format: cell-based
# Protocol: as §1
# [6] = test system: ErbB2; test: Phosphorylation of ErbB2 (immunoprecipitation / immunoblotting); format: cell-based; details: for phosphorylation of the P-loop of ErbB2: immunoblotting of total lysates, single agent
# Protocol: as §1
# Since SFKs can phosphorylate Y845 in the P-loop of the EGF-R, we examined the effect of SFK inhibition on phosphorylation of the corresponding tyrosine in the P-loop of ErbB2.
# [7] = test system: mammary tumors of Neu(YD) mice; test: Tumor apoptosis in treated mice; format: in vivo
# [8] = test system: ErbB2; test: Activation of ErbB2 in tumors of treated mice; details: Neu(YD)/b4-WT and Neu(YD)/b4-1355T tumors
# [9] = test system: STAT3; test: Phosphorylation of STAT3 in Neu-b4-WT cells; format: cell-based, mouse
# Description: Prior studies have linked SFK-mediated phosphorylation of the P-loop of ErbB receptors to JAK-STAT signaling. Since deletion of the b4 signaling domain reduces SFK activation and association with ErbB2 and decreases phosphorylation of the P-loop of ErbB-2, we examined the effect of this deletion on STAT3 activation. Phosphorylation at Y705 is essential for dimerization and activation of STAT3. […] […]. STAT3 S727, which is targeted by ERK, was phosphorylated at similar levels in both types of cells.
# [10] = test system: c-Jun; test: Phosphorylation of c-Jun in Neu-b4-WT cells; format: cell-based, mouse
# [11] = test system: c-Jun and STAT3; test: Activation of c-Jun and STAT3 in tumor lysates of treated mice; format: in vivo; details: both types of tumors
# [12] = test system: mammary tumors of MMTV-Neu (YD) mice; test: Anti-Ki-67 staining of tumor sections from treated MMTV-Neu(YD) mice; format: in vivo
# Protocol: Tumor sections were stained by IHC with anti-Ki-67 followed by counterstaining with hematoxylin. Bar=[…].
# Tumor sections were stained with anti-Ki-67 Mab, which labels proliferating cells.
# [13] = test system: tumor cells expressing wild-type b4; test: Assembly of adherens and tight junctions in primary ErbB2-transformed tumor cells; format: cell-based, mouse
# Description: Tight junctions have emerged as key regulators of mammalian epithelial polarity and adhesion. Prompted by the observation that deletion of the b4 signaling domain increases the organization of tight junctions in mammary tumors, we used an ex vivo approach to examine the effect of b4 signaling on epithelial adhesion and polarity.
# [14] = test system: Neu-b4-WT cells; test: Assembly of adherens and tight junctions in isogenic Neu-b4-WT cells; details: Neu-b4-WT cells in culture
# Description: To examine if the b4 integrin disrupts epithelial adhesion by a direct signaling mechanism, we generated isogenic Neu-transformed mammary tumor cells expressing either wildtype or mutant b4 by using an RNAi-reconstitution strategy.
# [15] = test system: Neu-b4-WT cells; test: Matrigel invasion assay in response to FBS; details: Iressa 10 μM
# [16] = test system: ERK and Akt; test: Activation of ERK and Akt in Neu-b4 cells in vitro; format: cell-based, mouse; details: Neu-b4-1355T versus Neu-b4-WT cells
smiles,measurement,setting,value
COc1cccc2c1C(=O)c1c(O)c3c(c(O)c1C2=O)C[C@@](O)(C(=O)CO)C[C@@H]3O[C@H]1C[C@H](N)[C@H](O)[C@H](C)O1 [Doxorubicin],tumor regression,"[1]; Neu(YD)/b4-WT and Neu(YD)/b4-1355T mice, single dose 10 mg/Kg",failed to induce tumor regression in either type of mouse
"COc1cc2ncnc(Nc3ccc(F)c(Cl)c3)c2cc1OCCCN1CCOCC1 [Iressa, Gefitinib]",activation of ERK and Akt in tumor lysates,[2],inhibited activation of ERK and Akt in Neu(YD)/b4-1355T tumors by an extent larger than it did in Neu(YD)/b4-WT tumors
same,tyrosine phosphorylation of b4,[3],suppressed
same,"apparent IC50, comparison of cell types",[4],equal apparent IC50
same,activation of SFKs,[5],did not affect
same,phosphorylation of ErbB2 at its major autophosphorylation site,[6],suppressed
same,tyrosine phosphorylation of ErbB2,[6],suppressed
same,phosphorylation of the P-loop of ErbB2,[6],inhibit phosphorylation of the P-loop of ErbB2 to a significant extent
same,effect on tumor volume,[1]; Neu(YD)/b4-1355T tumors,induced regression
same,effect on tumor volume,[1]; Neu(YD)/b4-WT tumors,only reduced the rate of growth
same,treated tumors that regress,[1]; control group (wild-type b4 mice),~20%
same,treated tumors that regress,[1]; tumors arising in b4-mutant mice,About 80%
same,"tumor apoptosis, comparison of genotypes",[7]; Neu(YD)/b4-1355T versus Neu(YD)/b4-WT mice,increased tumor apoptosis in Neu(YD)/b4-1355T mice to a larger extent than it did in Neu(YD)/b4-WT mice
same,overall apoptotic rates,"[7]; both genotypes, treated",less than 1%
same,activation of ErbB2 in tumors,[8],suppressed activation of ErbB2 in both types of tumors
same,phosphorylation of STAT3,[9],inhibited phosphorylation of STAT3 in Neu-b4-WT cells at concentrations higher than those necessary to suppress activation of ERK
same,phosphorylation of c-Jun,[10],"inhibited phosphorylation of c-Jun in Neu-b4-WT cells, but at concentrations higher than those required to suppress activation of ERK"
same,activation of c-Jun and STAT3 in tumor lysates,[11],did not suppress but seemed to increase to a small extent
same,tumor cell proliferation,[12]; Neu(YD)/b4-1355T mice,inhibited tumor cell proliferation
same,tumor cell proliferation,[12]; Neu(YD)/b4-WT mice,more modest inhibitory effect
same,reassembly of adherens and tight junctions,[13],promoted reassembly of both adherens and tight junctions
same,organization of adherens and tight junctions,[14],"failed to organize both types of junctions, unless they were treated with Iressa"
same,Matrigel invasion,[15],prevented their invasion
same,activation of ERK and Akt in vitro,[16],at doses lower than in Neu-b4-WT cells
CC(C)(C)n1nc(-c2ccc(Cl)cc2)c2c(N)ncnc21 [PP2],tyrosine phosphorylation of b4,[3],suppressed
same,activation of SFKs,[5],exerted the opposite effects
same,phosphorylation of ErbB2 at its major autophosphorylation site,[6],exerted the opposite effects
same,tyrosine phosphorylation of ErbB2,[6],only partially inhibited
same,phosphorylation of the P-loop of ErbB2,[6],inhibit phosphorylation of the P-loop of ErbB2 to a significant extent
